The values that follow come from patent US20050026987A1, “CBI analogues of the duocarmycins and CC-1065” (The Scripps Research Institute, priority 2003, published 2005).

The subject of data set [1] is L1210. Particulars: cited from earlier work.
The next data set concerns w794 DNA. The experiment in a line: DNA alkylation selectivity, efficiency and rate in w794 DNA. The format is biochemical.
In data set [2] the test system is L1210. The experiment in a line: L1210 cytotoxic potency. Particulars: for IC50: Mus musculus, L1210, read-out: IC50 (cytotoxic potency).

Read-outs that look alike come from different tables or passages of the source.

Consider `NC(=O)N1CCc2c1ccc1[nH]c(C(=O)N3C[C@H]4C[C@@]45C3=CC(=O)c3ccccc35)cc21` [(+)-CBI-CDPI1], for which, in the data set with L1210 [1] (disclosed in prior studies (J. Org. Chem. 1996, 61, 4894), read-out: IC50 (cytotoxic potency), prior studies), the IC50 (in general, the concentration needed to halve the response being measured) is 5 pM. Turning to `CC(=O)c1ccc2[nH]c(C(=O)N3C[C@H]4C[C@@]45C3=CC(=O)c3ccccc35)cc2c1` [compound 54, N^2-[(5-Acetylindole-2-yl)carbonyl]-(8bR,9aS)-1,2,9,9a-tetrahydrocyclopropa[c]benz[e]in-dol-4-one], in the data set on w794 DNA, the DNA alkylation selectivity entry is reported as “no alterations in the inherent DNA alkylation selectivity”; the “rate and efficiency of DNA alkylation” value is “enhanced rate and efficiency of DNA alkylation”. Moreover, in the data set with L1210 [2] (relative to (+)-CBI-indole (R=H)), the “increase in cytotoxic potency over (+)-CBI-indole (5)” value stood at 1000 fold. As to `CCS(=O)(=O)c1ccc2[nH]c(C(=O)N3C[C@@H](CCl)c4c3cc(O)c3ccccc43)cc2c1` [compound 65, 3-(5-Ethylsulfonylindole-2-carbonyl)-1-(S)-(chloromethyl)-5-hydroxy-1,2-dihydro-3H-benz[e]indole], in the data set on L1210 [2], the IC50 was found to be 40 pM. With `O=C1C=C2N(C(=O)c3cc4c5c(ccc4[nH]3)OCC5)CC3CC23c2ccccc21` [compound 70, N^2-[(1,2-Dihydropyrrolo[3,2-e]benzofuran-7-yl)carbonyl]-(8bR,9aS)-1,2,9,9a-tetrahydro-cyclopropa[c]benz[e]indol-4-one], the “relative cytotoxic potency in words” value in the data set on L1210 [2] was “slightly more potent than 7”. Same read-out and setting: under `O=C1CCc2c1ccc1[nH]c(C(=O)N3C[C@@H](CCl)c4c3cc(O)c3ccccc43)cc21` [compound 72, 3-(6-Oxo-cyclopenten[e]indole-2-carbonyl)-1-(S)-(chloromethyl)-5-hydroxy-1,2-dihydro-3H-benz[e]indole] stands “matched the potency of the C5 substituted methyl and ethyl ketones 54 and 56”.

On to `O=C(C1Oc2ccc3[nH]ccc3c2O1)N1C[C@@H](CCl)c2c1cc(O)c1ccccc21` (stereo partly drawn) [compound 74, 3-([1,3]Dioxolo[e]indole-2-carbonyl)-1-(S)-(chloromethyl)-5-hydroxy-1,2-dihydro-3H-benz[e]indole], for which, in the data set on L1210 [2], the “relative cytotoxic potency in words” value was “much more active than the corresponding unconstrained 4,5 dimethoxy derivative 10”. For the molecule `O=C1C=C2N(C(=O)c3cc4cc5c(cc4[nH]3)OCO5)C[C@H]3C[C@@]23c2ccccc21` [compound 75, N^2-[([1,3]Dioxolo[f]indole-2-yl)carbonyl]-(8bR,9aS)-1,2,9,9a-tetrahydrocyclopropa[c]-benz[e]indol-4-one], the “relative cytotoxic potency in words” value with L1210 [2] is “substantially less potent than the corresponding unconstrained C5,6 dimethoxy derivative 11”. Regarding `COC(=O)c1cc2c([nH]1)C(=O)C=C1N(C(=O)c3cc4cc(OC)c(OC)c(OC)c4[nH]3)CC3CC123` (centres unmarked) [duocarmycin SA, reference compound], the “effect of 5,6,7-trimethoxy substitution / removal of TMI methoxy substituents on cytotoxic potency” value with L1210 [1] (literature comparison series) is listed as 6.5-10 fold. The IC50 in the data set on L1210 [2] was 6 to 10 pM.
